{"source": "patent US20120321609A1", "about": "“METHOD OF TREATING PSYCHOLOGICAL DISORDERS” (priority 2011, published 2012)", "molecules": {"B1": {"name": "Rab11-S25N: dominant negative Rab11 protein inhibiting receptor recycling via slow recycling endosomes (protein, UniProt P62491 2-213, looked up, variant S25N)", "Ras-related protein Rab-11A": "GTRDDEYDYLFKVVLIGDSGVGKNNLLSRFTRNEFNLESKSTIGVEFATRSIQVDGKTIKAQIWDTAGQERYRAITSAYYRGAVGALLVYDIAKHLTYENVERWLKELRDHADSNIVIMLVGNKSDLRHLRAVPTDEARAFAEKNGLSFIETSALDSTNVEAAFQTILTEIYRIVSQKQMSDRRENDMSPSNNVVPIHVPPTTENKPKVQCC"}, "B2": {"name": "corticotropin releasing factor (CRF) peptide (ligand, UniProt P06850 154-194, looked up, species assumed)", "Corticoliberin": "SEEPPISLDLTFHLLREVLEMARAEQLAQQAHSNRKLMEII", "modifications": "ends and bridges not checked"}, "B3": {"name": "Dynamin I-K44A: dominant-negative inhibitor of clathrin-mediated endocytosis, expressed in cells (protein, UniProt Q05193 1-864, looked up, variant K44A)", "Dynamin-1": "MGNRGMEDLIPLVNRLQDAFSAIGQNADLDLPQIAVVGGQSAGASSVLENFVGRDFLPRGSGIVTRRPLVLQLVNATTEYAEFLHCKGKKFTDFEEVRLEIEAETDRVTGTNKGISPVPINLRVYSPHVLNLTLVDLPGMTKVPVGDQPPDIEFQIRDMLMQFVTKENCLILAVSPANSDLANSDALKVAKEVDPQGQRTIGVITKLDLMDEGTDARDVLENKLLPLRRGYIGVVNRSQKDIDGKKDITAALAAERKFFLSHPSYRHLADRMGTPYLQKVLNQQLTNHIRDTLPGLRNKLQSQLLSIEKEVEEYKNFRPDDPARKTKALLQMVQQFAVDFEKRIEGSGDQIDTYELSGGARINRIFHERFPFELVKMEFDEKELRREISYAIKNIHGIRTGLFTPDMAFETIVKKQVKKIREPCLKCVDMVISELISTVRQCTKKLQQYPRLREEMERIVTTHIREREGRTKEQVMLLIDIELAYMNTNHEDFIGFANAQQRSNQMNKKKTSGNQDEILVIRKGWLTINNIGIMKGGSKEYWFVLTAENLSWYKDDEEKEKKYMLSVDNLKLRDVEKGFMSSKHIFALFNTEQRNVYKDYRQLELACETQEEVDSWKASFLRAGVYPERVGDKEKASETEENGSDSFMHSMDPQLERQVETIRNLVDSYMAIVNKTVRDLMPKTIMHLMINNTKEFIFSELLANLYSCGDQNTLMEESAEQAQRRDEMLRMYHALKEALSIIGDINTTTVSTPMPPPVDDSWLQVQSVPAGRRSPTSSPTPQRRAPAVPPARPGSRGPAPGPPPAGSALGGAPPVPSRPGASPDPFGPPPQVPSRPNRAPPGVPSRSGQASPSRPESPRPPFDL"}}, "key": {"mice [1]": {"system": "mice", "experiment": "Elevated plus maze test (anxiety-related behaviour)", "type": "in vivo, mouse", "conditions": "DOI 0.15 mg/kg i.p.; for entries to the closed arms of the plus maze: relative to vehicle", "procedure": "(§1) Male CD-1 mice were obtained from Charles River Canada (St. Constant, Quebec) at 50-60 days of age, and were acclimatized to the laboratory for approximately 30 days before serving as experimental subjects. Mice were housed four per cage, until the time of surgery, after which they were housed individually. The vivarium was maintained on a 12-h light/dark cycle in a temperature (21° C.) controlled room with food and water freely available. Mice were anesthetized using isoflurane and stereotaxic surgery (David Kopf Instruments Model 940) was performed to install a cannulae into the medial prefrontal cortex. A Guide cannulae (Plastics One In), situated according to the mouse atlas of Franklin and Paxinos at Lateral=0.32 mm, D/V=2.25 mm, A/P=+2.68 mm. A dummy cannula, was inserted flush with guide. Approximately 1 week after behavioral testing mice were perfused with 4% paraformaldehyde. Brains were subsequently sectioned at 14 microns and stained with Cresyl violet for probe placement verification. Only the data from mice with correct probe placements were used in the analysis of the behavioral tests.\nDrug diffusion was permitted for 5 min, and then after a further 5 min period mice were injected intraperotineally with DOI (Sigma) at a dose of 0.15 mg/kg or saline. Behavioral testing was conducted 15 min after the DOI treatment. In a second experiment the procedure was identical to that of the preceding study, except that mice were pretreated i.p. with either vehicle or 0.25 mg/kg of M100907 in a volume of 0.3 ml immediately prior to the DOI treatment. As in the preceding study mice were then tested in the elevated plus maze test (n=6-8)/group. Once again, data were obtained from videotapes and the researcher was blind as to the treatments mice had received.\nIn an initial test, mice were placed in a 45×45 cm open field, with an inner square of 21×24×24 cm., for a 5 min period, during which the time to enter the center area, and the total time spent in the center portion of the arena was recorded. The plus maze test was then conducted 1 min after the open field assessment. Mice were individually placed in one of the enclosed arms of a plus-maze and the behavior of the animals was recorded over a 5 min period by a ceiling-mounted video camera. The amount of time spent in each of the arms, the number of arm entries (an arm entry was defined as all four of the paws being placed in an arm of the plus-maze). The elevated plus-maze had two arms enclosed by 21 cm high walls; whereas the remaining two arms were open (arms were 24.8 cm long×7.7 cm wide). The maze was situated in a dimly lit room, such that the closed arms were darkened, whereas open arms were somewhat illuminated. All behavioural experiments were blinded. All experiments complied with the guidelines set by the Canadian Council on Animal Care and were approved by the Carleton University Animal Care Committee."}, "mice [2]": {"system": "mice", "experiment": "Open field test (anxiety-related behaviour)", "type": "in vivo, mouse", "conditions": "5 min test; CRF 1.5 μg into medial prefrontal cortex, DOI 0.15 mg/kg i.p.; vs vehicle-vehicle or single treatment", "procedure": "as §1, with “Brains were subsequently sectioned at 14 microns and stained with Cresyl violet for probe placement verification. Only the data from mice with correct probe placements were used in the analysis of the behavioral tests.” left out\nIn an initial test, mice were placed in a 45×45 cm open field, with an inner square of 21×24×24 cm., for a 5 min period, during which the time to enter the center area, and the total time spent in the center portion of the arena was recorded. […] Mice were individually placed in one of the enclosed arms of a plus-maze and the behavior of the animals was recorded over a 5 min period by a ceiling-mounted video camera. […]"}, "mice [3]": {"system": "mice", "experiment": "Elevated plus maze test (anxiety-related behaviour)", "type": "in vivo, mouse", "conditions": "DOI doses 0.625 and 1.25; data not shown"}, "CRFR1": {"target": "T1, CRFR1 (Homo sapiens, UniProt P34998)", "T1 construct": "expressed in transfected cells; host or cells: HEK 293", "T1 sequence (P34998 24-415)": "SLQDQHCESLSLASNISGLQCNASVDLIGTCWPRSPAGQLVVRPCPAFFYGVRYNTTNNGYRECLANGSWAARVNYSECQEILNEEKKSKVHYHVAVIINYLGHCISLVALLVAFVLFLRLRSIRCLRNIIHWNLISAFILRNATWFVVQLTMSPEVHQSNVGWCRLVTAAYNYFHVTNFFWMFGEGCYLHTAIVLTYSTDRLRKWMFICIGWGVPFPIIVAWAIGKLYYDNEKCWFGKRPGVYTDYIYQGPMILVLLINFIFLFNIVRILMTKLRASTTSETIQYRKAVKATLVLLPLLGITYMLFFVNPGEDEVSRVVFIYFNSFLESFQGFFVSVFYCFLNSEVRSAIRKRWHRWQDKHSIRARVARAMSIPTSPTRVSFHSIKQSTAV", "experiment": "CRF-stimulated cAMP formation (cAMP-Glo) in HEK 293 cells with FLAG-5-HT2AR and HA-CRFR1", "type": "cell-based", "conditions": "5-HT 10 μM pretreatment 30 min", "procedure": "Briefly, HEK 293 cells transiently expressing FLAG-5-HT2AR and HA-CRFR1 were seeded into 96-well plate (10,000 cells/well). Two days after transfection, cells were incubated in the absence or presence of 10 μM 5-HT in induction buffer [HBSS, 500 μM isobutyl-1-methylxanthine (IBMX)] for 30 minutes at 37° C. […] Following stimulation, cells were solubilized with cAMP-Glo lysis buffer for 15 minutes with gentle shaking at room temperature. Lysates were carefully transferred to a white opaque 96-well plate and cAMP-Glo Detection solution containing protein kinase A was added for 20 minutes at room temperature followed by addition of Kinase-Glo Reagent for 10 min. Luminescence was measured using a Victor Reader (Perkin-Elmer, Walthan, Mass.)."}, "5-HT2AR": {"target": "T2, 5-HT2AR (Homo sapiens, UniProt P28223)", "T2 construct": "expressed in transfected cells; host or cells: HEK 293", "experiment": "5-HT-stimulated inositol phosphate formation in HEK 293 cells transfected with FLAG-5-HT2AR and HA-CRFR1", "type": "cell-based", "conditions": "for effect on the CRFR1-dependent increase in 5-HT2AR-stimulated inositol phosphate formation following CRF pretreatment: CRF 500 nM 30 min, monensin 100 μM 30 min, Tat peptide 1 h pretreatment, or co-expressed dominant-negative protein"}, "[4]": {"target": "endogenous CRFR1 of mouse prefrontal cortex (mouse) (UniProt P35347)"}, "HA-CRFR1 [5]": {"target": "HA-CRFR1"}, "HA-CRFR1 [6]": {"target": "HA-CRFR1", "remark": "listed apart in the source"}, "[7]": {"conditions": "second experiment (M100907 study), CRF 1.5 μg mPFC, M100907 0.25 mg/kg i.p."}, "[8]": {"conditions": "first experiment, CRF 1.5 μg into medial prefrontal cortex"}}, "note": "Ends that are not written are not given here.", "data": [{"molecule": "COc1cccc([C@H](O)C2CCN(CCc3ccc(F)cc3)CC2)c1OC", "note": "[M100907]", "values": [{"measurement": "frequency of open arm entries in the plus maze", "setting": "mice [1]; [7]", "value": "did not make any entries onto the open arm"}, {"measurement": "latency to enter the open arms of the plus maze", "setting": "mice [1]; [7]", "value": "none of the mice entered the open arms"}, {"measurement": "time spent in the closed arms of the plus maze", "setting": "mice [1]; [7]", "value": "increased"}, {"measurement": "time spent in the open arms of the plus maze", "setting": "mice [1]; [7]", "value": "profoundly influenced"}, {"measurement": "entries to the closed arms of the plus maze", "setting": "mice [1]; [7]", "value": "reduced the frequency of arm entries"}]}, {"molecule": "COc1cc(CC(C)N)c(OC)cc1I", "note": "(stereo not shown) [DOI, 2,5-dimethoxy-4-iodoamphetamine]", "values": [{"measurement": "latency to enter the center square of open field", "setting": "mice [2]", "value": "neither the CRF nor the DOI treatments alone influenced performance"}, {"measurement": "latency to enter an open arm of the plus maze", "setting": "mice [1]; [8]", "value": "modest reduction"}, {"measurement": "number of entries into the closed arms of the plus maze", "setting": "mice [1]; [8]", "value": "did not vary"}, {"measurement": "number of entries onto the open arms of the plus maze", "setting": "mice [1]; [8]", "value": "modest reduction"}, {"measurement": "frequency of open arm entries in the plus maze", "setting": "mice [1]; [7]", "value": "neither CRF nor DOI alone affected the frequency of open arm entries"}, {"measurement": "latency to enter the open arms of the plus maze", "setting": "mice [1]; [7]", "value": "did not influence the latencies"}, {"measurement": "time spent in the closed arms of the plus maze", "setting": "mice [1]; [7]", "value": "unaffected"}, {"measurement": "entries to the closed arms of the plus maze", "setting": "mice [1]; [7]", "value": "increased closed arm entries"}, {"measurement": "arm entries at significantly higher doses of DOI", "setting": "mice [3]", "value": "elevated arm entries"}]}, {"molecule": "NCCc1c[nH]c2ccc(O)cc12", "note": "[5-HT, serotonin]", "values": [{"measurement": "effect of pretreatment on CRFR1 responsiveness (CRFR1-mediated cAMP formation)", "setting": "CRFR1", "value": "had no effect"}]}, {"molecule": "CC[C@@]1([C@@H]2O[C@@H]([C@H]3O[C@@](O)(CO)[C@H](C)C[C@@H]3C)C[C@@H]2C)CC[C@H]([C@]2(C)CC[C@]3(C[C@H](O)[C@@H](C)[C@@H]([C@@H](C)[C@@H](OC)[C@H](C)C(=O)O)O3)O2)O1", "note": "[monensin]", "values": [{"measurement": "effect on the CRFR1-dependent increase in 5-HT2AR-stimulated inositol phosphate formation following CRF pretreatment", "setting": "5-HT2AR", "value": "attenuated the increase in 5-HT2AR signaling"}, {"measurement": "effect on 5-HT2AR signaling in the absence of CRF pretreatment", "setting": "5-HT2AR; monensin 100 μM for 30 min, no CRF", "value": "did not affect 5-HT2AR signaling"}]}, {"molecule": "B1", "values": [{"measurement": "effect on the CRFR1-dependent increase in 5-HT2AR-stimulated inositol phosphate formation following CRF pretreatment", "setting": "5-HT2AR", "value": "but not the overexpression of Rab11-S25N, blocked the increase"}]}, {"molecule": "B2", "values": [{"measurement": "5-HT-stimulated inositol phosphate formation in prefrontal cortex slices", "setting": "[4]", "value": 2.3, "unit": "fold"}, {"measurement": "cell surface expression of 5-HT2AR (biotinylation)", "setting": "HA-CRFR1 [5]", "value": 3.7, "unit": "fold"}, {"measurement": "loss of cell surface HA-CRFR1 (flow cytometry)", "setting": "HA-CRFR1 [6]", "value": 24, "unit": "%"}]}, {"molecule": "B3", "values": [{"measurement": "effect on the CRFR1-dependent increase in 5-HT2AR-stimulated inositol phosphate formation following CRF pretreatment", "setting": "5-HT2AR", "value": "completely eliminated"}]}]}
